Data published in ChEMBL document CHEMBL1201862, “PubChem BioAssay data set” (2004).
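All cell lines were grown in 96-well plates and treated with compound for 48 hours. GI50: concentration for 50% inhibition of growth.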 Active and inactive are the calls of the source. No stated cut-off is given here; in the data, active = GI50 up to about 1.1 µM and inactive = higher.

Tests used:
Assay in all cases: NCI-60 cell line screen, 48 h
[1] = test system: KM-20L2
[2] = test system: HL-60
[3] = test system: RPMI-8226
[4] = test system: SK-MEL-2
[5] = test system: SF-295
[6] = test system: COLO 205
[7] = test system: IGROV-1
[8] = test system: HCC 2998
[9] = test system: SF-539
[10] = test system: SF-268
[11] = test system: HCT-15
[12] = test system: UACC-257
[13] = test system: DMS-273
[14] = test system: SR
[15] = test system: CCRF-CEM
[16] = test system: XF498
[17] = test system: MOLT-4
[18] = test system: A498
[19] = test system: SK-MEL-28
[20] = test system: HT-29
[21] = test system: KM12
[22] = test system: M14
[23] = test system: K562
[24] = test system: LXFL 529
[25] = test system: SNB-19
[26] = test system: TK-10
[27] = test system: 786-0
[28] = test system: DLD-1
[29] = test system: SK-MEL-5
[30] = test system: UACC-62
[31] = test system: LOX IMVI
[32] = test system: OVCAR-8
[33] = test system: SK-OV-3
[34] = test system: UO-31
[35] = test system: Malme-3M
[36] = test system: RXF 631
[37] = test system: RXF 393
[38] = test system: NCI-H460
[39] = test system: M19-MEL
[40] = test system: HOP-92
[41] = test system: NCI-H23
[42] = test system: U-251
[43] = test system: A549
[44] = test system: SNB-75
[45] = test system: ACHN
[46] = test system: HCT-116
[47] = test system: OVCAR-5
[48] = test system: SW-620
[49] = test system: SNB-78
[50] = test system: OVCAR-3
[51] = test system: EKVX
[52] = test system: DMS-114
[53] = test system: SN12C
[54] = test system: NCI-H522
[55] = test system: HOP-18
[56] = test system: CAKI-1
[57] = test system: NCI-H226
[58] = test system: OVCAR-4
[59] = test system: HOP-62

Measured: GI50

C/C=C(\CCOS(=O)(=O)c1ccc(C)cc1)[Si](C)(C)C
> 100 µM: [11]
active: [15] 0.115 µM
inactive: [1] > 100 µM | [2] > 100 µM | [3] > 100 µM | [4] > 100 µM | [5] > 100 µM | [6] > 100 µM | [7] > 100 µM | [8] > 100 µM | [9] > 100 µM | [10] > 100 µM | [12] > 100 µM | [13] > 100 µM | [14] > 100 µM | [16] > 100 µM | [17] > 100 µM | [18] > 100 µM | [19] > 100 µM | [20] > 100 µM | [21] > 100 µM | [22] > 100 µM | [23] > 100 µM | [24] > 100 µM | [25] > 100 µM | [26] > 100 µM | [27] > 100 µM | [28] > 100 µM | [29] > 100 µM | [30] > 100 µM | [31] > 100 µM | [32] > 100 µM | [33] > 100 µM | [34] > 100 µM | [35] > 100 µM | [36] > 100 µM | [37] > 100 µM | [38] > 100 µM | [39] > 100 µM | [40] > 100 µM | [41] > 100 µM | [42] > 100 µM | [43] > 100 µM | [44] > 100 µM | [45] > 100 µM | [46] > 100 µM | [47] > 100 µM | [48] > 100 µM | [49] > 100 µM | [50] > 100 µM | [51] > 100 µM | [52] > 100 µM | [53] > 100 µM | [54] > 100 µM | [55] > 100 µM

Cc1noc2cccc(OCc3ccccc3)c12
inactive: [1] 65.5 µM | [2] 17.3 µM | [3] 30.7 µM | [4] 23.8 µM | [5] 72.4 µM | [6] 52.1 µM | [7] 60.1 µM | [56] 38.1 µM | [9] > 100 µM | [10] > 100 µM | [57] 46.5 µM | [12] 53.8 µM | [13] 52 µM | [14] 34.6 µM | [15] 13.5 µM | [16] 56.9 µM | [17] 39.5 µM | [19] > 100 µM | [20] 37.2 µM | [21] 91.2 µM | [22] 92.5 µM | [23] 43 µM | [24] 49 µM | [25] 91 µM | [58] 82.8 µM | [26] 47 µM | [27] 99.3 µM | [28] 64.9 µM | [29] 17.1 µM | [30] > 100 µM | [31] 51.3 µM | [32] 67.1 µM | [33] > 100 µM | [34] 15 µM | [35] > 100 µM | [36] 85.7 µM | [37] 30.8 µM | [38] > 100 µM | [39] 60.1 µM | [40] 43.3 µM | [41] > 100 µM | [42] 93.8 µM | [43] 44.1 µM | [44] 30.6 µM | [45] 50.7 µM | [59] > 100 µM | [46] 48.1 µM | [47] 25.6 µM | [48] > 100 µM | [49] 80.5 µM | [50] 94.8 µM | [51] 35.7 µM | [52] 29 µM | [53] > 100 µM | [54] 13.2 µM | [55] > 100 µM
50.8 µM: [11]

Cc1ccc(NC(=O)OCC(COc2ccc(Cl)cc2)OC(=O)Nc2ccc(C)cc2)cc1 (stereo not given)
active: [2] 0.938 µM
inactive: [1] 36.7 µM | [3] 9.77 µM | [4] 15 µM | [5] 23.5 µM | [6] 39.6 µM | [7] 9.79 µM | [56] 15.7 µM | [8] 39 µM | [9] 21.6 µM | [10] 22.5 µM | [57] 16.5 µM | [12] 21.9 µM | [13] 15.8 µM | [14] > 100 µM | [15] 9.93 µM | [16] 26.4 µM | [17] 16.2 µM | [18] 13.2 µM | [19] 35.1 µM | [20] 15.2 µM | [21] 23 µM | [22] 17.1 µM | [23] 9.27 µM | [24] 23.4 µM | [25] 19.6 µM | [58] 13.7 µM | [26] 12.4 µM | [28] 30.5 µM | [29] 24.5 µM | [30] 19.1 µM | [31] 21.2 µM | [32] 81.3 µM | [33] 58.6 µM | [34] 11.9 µM | [35] 19 µM | [36] 11.5 µM | [37] 12.9 µM | [38] 25.9 µM | [39] 22.4 µM | [40] 11.1 µM | [41] 25.9 µM | [42] 28.4 µM | [43] 13.7 µM | [44] 14.5 µM | [45] 20.7 µM | [59] 26.6 µM | [46] 20.7 µM | [47] 27.9 µM | [48] 17.1 µM | [49] 23.2 µM | [50] 14.6 µM | [51] 70.3 µM | [52] 17.3 µM | [53] 20.4 µM | [54] 29.8 µM | [55] > 100 µM
29.7 µM: [11]
